Tests used:
E. coli = test: Biofilm formation, crystal violet staining in 96-well plates; type: cell-based; conditions: 400 μM dATP
Method: (§1) Overnight LB-grown culture was diluted 100 times with 10% LB medium, and 100 μL of the dilution was inoculated into each well of 96-well plates. dATP, dGTP, DNase I, or apyrase was added into wells to result in the desired concentrations. An equivalent volume of 10% LB medium was added into wells as control. Plates were covered with lids and incubated at 30° C. for 16 hours before optical density (OD) was measured at 600 nm for the record of growth. Fifteen microliters of 0.1% crystal violet solution was added into each well for crystal violet staining (CV staining) After 15 min of staining, each well was washed gently three times with 100 μl of PBS buffer. Supernatant in each well was removed and 100 μl of 75% ethanol was added to dissolve crystal violet before measuring optical density at 600 nm (CV OD) for the quantification of biofilm biomass.
(§2) For visualization of biofilm structure (FIG. 2), biofilms were developed as described above. After 16 hours of incubation, supernatant was removed from each well and 100 μl of PBS buffer containing 0.1 mM SYTO-9 green, 10 mM Propidium Iodide (PI) was added for staining in dark for 15 min. Cell images were acquired with a Perkin Elmer UltraView confocal microscope system equipped with an Argon-Krypton laser. Images were taken with an oil immersion 60× objective lens in two channels (488 nm excitation for SYTO9 and 568 nm excitation for PI). […]

Acinetobacter [1] = test: Extracellular DNA (eDNA) extraction and quantification; type: cell-based
Method: DNA extraction and quantification: Biofilms were developed as mentioned above for 16 hours and biofilm cells were resuspended with 0.9% NaCl solution, homogenized for 1 min and utilized for eDNA extraction. Planktonic cells were incubated at 30° C. for 8 hours with a 1% of inoculation and cells were washed with fresh 10% of LB broth three times before resuspension in the same volume of 10% of LB broth or 10% LB broth supplemented with 400 μM of dATP. The cells solutions were then incubated at 30° C. for another 2 hour and were ready for eDNA extraction. Biofilm cells suspension and planktonic cultures were treated as previously reported (27) for DNA extraction. Briefly, cell solution was treated with Dispersin B (20 μg/ml) at 37° C. for 30 min followed by treatment of proteinase K (5 μg/ml) for another 30 min at 37° C. Treated cell solution was filtered through a 0.2 μm syringe filter (PES, Water & Process Technologies), elute was used to extract the extracellular DNA by using ethanol precipitation. DNA was dissolved in 50 μl of sterile MilliQ water and the concentration of DNA was measured by using the PicoGreen dsDNA Quantitation Kit (Molecular Probes, Invitrogen).

[2] = test system: Acinetobacter baumannii ATCC 17978; test: Bacterial adherence assay on human bronchial epithelial NCI-H292 cells; type: cell-based
Method: Bacterial adherence assay was performed as described ([…]; herein incorporated by reference in its entirety). Human bronchial epithelial cell line NCI-H292 (ATCC CRL-1848; American Tissue Culture Collection, Rockville, Md., USA) were cultured in a petri dish at 37° C. in RPMI 1640 medium (Gibco BRL, Grand Island, N.Y., USA), supplemented with 25 mM HEPES, 2 mM L-glutamine, penicillin G 100,000 U/L, streptomycin 50 mg/L and 10% (v/v) of fetal bovine serum (Gibco BRL), in a humidified atmosphere containing 5% (v/v) of CO2.
When NCI-H292 cells covered about 80% of the bottom of petri dish, the medium was replaced with 0.25% trypsin-EDTA (1689649, MP Biomedicals, Solon Ohio) and the petri dish was incubated at 37° C. for 10 min. NCI-H292 Cells were collected by cell scraper and washed with fresh RPMI 1640 medium three time by centrifuging at 300×g for 3 min. Washed cells were adjusted to the concentration of 1×10^5 cells per ml with fresh RPMI 1640 and 2 ml of cell solution were transferred to each well of a 12-well plate, which contained a 13-mm-diameter plastic coverslip (Thermanox, Nunc, Rochester, N.Y., USA) in each well. The cells were incubated at 37° C. for about 3 days until cells covered about 90% of coverslip and were then washed with phosphate buffered saline (PBS) three times. Acinetobacter baumannii ATCC 17978 grown overnight in Luria Bertani (LB) medium were collected and washed three times with fresh RPMI 1640 medium by centrifuging at 6,000 rpm for 3 min. Bacterial cells were adjusted to the concentration of 1×10^8 CFU/mL (OD600=0.05) and mixed with reagents (400 μM of dATP, or 200 mU/ml of apyrase) as necessary. Each cell monolayer was infected with 1 mL of bacterial suspension and incubated for 60 min at 37° C. in a CO2 5% v/v atmosphere. For damaged cell assays, NCI-H292 cells (around 5%) in the central area of plastic coverslips were damaged by tip of a knife before the infection performed. […] The number of bacteria adhering to 100 cells was determined. […]

Acinetobacter [3] = test: Bacterial initial attachment assay; type: cell-based; conditions: 125 μM dATP; visualized at 2 h, 4 h and 8 h post-treatment
Method: Bacterial initial attachment assay: 1% of an overnight culture was inoculated into the wells of 96-well glass bottom microplate containing 100 μl of 10% LB media, after predetermined incubation time, suspension was removed from each well and rinsed with PBS buffer for three times then biofilm samples were stained with LIVE/DEAD BacLight Bacterial Viability Kits (cat. L7007, Invitrogen) following the instructions in the manual. All microscopic observations and image acquisitions were performed with Olympus IX71 equipped with detectors and filter sets for monitoring of SYTO-9 and propidium iodide (PI). Images were obtained using a 60× objective.

S. maltophilia = test: Biofilm formation, crystal violet staining in 96-well plates; type: cell-based; conditions: 400 μM dATP
Method: as §1

S. aureus = test: as above; type: cell-based; conditions: 400 μM dATP
Method: as §1

Acinetobacter cultures = test: CytoTox-Glo cytotoxicity assay (programmed cell death); type: cell-based; conditions: 24 h post-treatment
Source text: Cytotoxicity Assay: Planktonic cells and biofilm cells were collected as described above and washed with PBS buffer three times. Cell concentration was adjusted to 1-1.5×10^8 CFU/ml with PBS buffer and samples were ready for dead-cell protease activity, which had been released from cells that had lost membrane integrity, by using CytoTox-Glo™ Cytotoxicity Assay (Cat. G9291. Promega. Madison, Wis.) following the instructions by the manufacturer.

Acinetobacter biofilms = test: Biofilm biomass, crystal violet staining in 96-well plates; type: cell-based; conditions: 16 hours incubation
Method: as §1, §2

Acinetobacter baumannii = Acinetobacter baumannii adherence in mouse wound infection model; type: in vivo, C57BL/6 mice; conditions: burn wound sites treated with 400 mU/mL apyrase during inoculation
Method: Female pathogen-free C57BL/6 mice (Harlan, Indianapolis, Ind.), 12 weeks old, weighing approximately 20-23 grams were used in all experiments. Mice were housed in standard cages at the University Laboratory Animals Facility and were allowed to acclimate for 7 days after delivery prior to the experiment. The animals were kept on a 12 hour light cycle and were provided with rodent chow (LabDiet 5001, PMI Int'l., Richmond, Ind.) and water ad libitum throughout the study.
Pentobarbital (Nembutal, Ovation Pharmaceuticals, Inc., Deerfield, Ill., manufactured by Hospira, Lake Forest, Ill.) was administered intraperatonially (50 mg/kg IP) for anesthesia. During the study, all mice were singly housed and all received 0.1 mg/kg buprenorphine (Buprenex; Reckitt Benckiser Pharmaceuticals Inc., Richmond, Va.) subcutaneously (SQ) twice daily for post-burn pain control.
The skin over the lumbrosacral and back region was clipped using a 35-W model 5-55E electrical clipper (Oyster-Golden A-S, Head no. 80, blade size 40). Depilatory cream (Nair® lotion) was applied for about 1.5 minutes, then wiped off with a damp paper towel. Skin was rinsed under the faucet in lukewarm water and then blotted dry.
The first buprenorphine dose (67 ul/20 g, 83 ul/25 g mouse or 0.1 ug/g) was administered SQ under the skin of the upper back.
All 8 mice were burned. […]

| Molecule | biofilm formation (E. coli) | extracellular DNA (eDNA) release (Acinetobacter [1]; biofilm cultures, more pronounced effect than in planktonic) | extracellular DNA (eDNA) release (Acinetobacter [1]; planktonic cultures) | aggregate formation on human bronchial epithelial cells ([2]; 400 μM dATP in media) | increase of A. baumannii adherence to human bronchial epithelial cells ([2]; 400 μM dATP in media, 1 hour after incubation) | rates of attachment in initial biofilm formation (Acinetobacter [3]) | biofilm formation (S. maltophilia) | biofilm formation (S. aureus) | programmed cell death (Cytotox-glo) (Acinetobacter cultures; biofilm form) | programmed cell death (Cytotox-glo) (Acinetobacter cultures; planktonic form) | biofilm biomass (Acinetobacter biofilms) | effect on increased bacterial adherence (dATP or damaged cells) ([2]; Apyrase 200 mU/ml) | adherence during initial stages of biofilm formation, cell count per gram of skin tissue (Acinetobacter baumannii) |
| --- | --- | --- | --- | --- | --- | --- | --- | --- | --- | --- | --- | --- | --- |
| Nc1ncnc2c1ncn2[C@H]1C[C@H](O)[C@@H](COP(=O)(O)OP(=O)(O)OP(=O)(O)O)O1 [dATP, deoxyadenosine triphosphate] | increased biofilm formation | Stimulation of extracellular DNA (eDNA) | Stimulation of extracellular DNA (eDNA) | promoted aggregate formation | about 100 fold | accelerated rates of attachment | increased biofilm formation | increased biofilm formation | increased levels of programmed cell death | increased levels of programmed cell death | stimulated biofilm biomass |  |  |
| apyrase |  |  |  |  |  |  |  |  |  |  | reduced biomass | completely arrested | decreased adherence |

Reference: patent US20140205586A1, “CONTROL OF BIOFILM FORMATION” (THE REGENTS OF THE UNIVERSITY OF MICHIGAN, priority 2010, published 2014)
